“And” between values parts separate entries of the source, which are not always exact repeats. Equal entries are not always repeated.
Key:
Velvet Leaf [1] = experiment: Preemergent injury rating, velvetleaf; format: in vivo; parameters: key: injury rating scale on which 4 = death
Description: (§1) Various of the compounds to be employed as active agent in accordance with the present invention were evaluated for preemergent application to various species of plants. In this evaluation, a soil was prepared consisting of one part masonry sand and one part shredded top soil blended together in a cement mixer. One gallon of this soil was placed in a 25 × 35 cm. galvanized flat and was patted down with a bench brush until level. A three-row marker was used to make 21/2 cm. deep furrows in approximately two-fifths of the flat. Crop seeds consisting of four kernels of corn, five cotton seeds and five soybean seeds were placed in these furrows. A four-row template was then placed on the remaining soil and the indicated approximate numbers of each of the following seeds were planted, one species to each section: foxtail (millet), 80-100 seeds; velvetleaf (40-50 seeds); rough pigweed (150-250 seeds); and large crabgrass (100-150 seeds).
(§2) Sufficient soil was added to cover the entire flat. Thus, the weed seeds were covered to a depth of about 6 mm. and the crop seeds were covered to a depth of about 3 cm.
(§3) In assaying the effect of the composition as preemergent herbicides, a flat prepared as above, taken either on the day of planting or on the next day, was placed in a chamber equipped with a turntable and an air exhaust. The herbicidal composition, either a spray-type emulsion or a wettable powder, was applied to the flat with a modified DeVilbiss atomizer hooked to an air source. Twelve and one-half milliliters of the composition under test were applied to each flat either on the day of planting or the succeeding day. Injury ratings and observations as to type of injury were made eleven to twelve days after treatment. The injury rating scale used was as follows:
(§4) 4--death When more than one determination was carried out at a given rate, an average value was calculated for the injury rating. Each compound evaluated was formulated as a spray by one of the following procedures. In one method the particular compound was wetted by grinding in a mortar with one part of polyoxyethylene sorbitan monolaurate. Five hundred parts of water were added slowly to the resultant creamy paste to give an aqueous dispersion with a surfactant concentration of 0.2 percent. This dispersion was entirely satisfactory for spray application. In a second procedure the compound was dissolved in one volume of acetone, and the acetone solution was diluted with nineteen volumes of water containing 0.1 percent of polyoxyethylene sorbitan monolaurate.
(§5) In the following table setting forth the results of the evaluation, column 1 gives the name of the compound under test; column 2, the rate in pounds per acre at which the compound was applied to the test flat; and the remaining columns, the injury to the particular plant seeds or seedlings as measured by the foregoing scale.

Sorghum = experiment: General herbicidal effect alone/in combination, sorghum; format: in vivo; parameters: key: 0-10 scale: 0 = no injury, 10 = death; details: alone
Description: as §1, §2, §3, §4
(§6) 6-Chloro-1-hydroxy-2-(trifluoromethyl)-1H-imidazo(4,5-b)pyridine was evaluated in combination with 2-chloro-4-ethylamino-6-isopropylamino-s-triazine and separately in combination with 2-chloro-2',6'-diethyl-N-(methoxymethyl)acetanilide for the control of plants. The evaluations were conducted as described in Examples 49-52, except that the rates of compound differed and the species were different. General herbicidal effect was rated on a scale of 0-10, with 0 = no injury and 10 = death. Observations were also made for the following other specific phytotoxic effects.

Jimsonweed = experiment: General herbicidal effect alone/in combination, jimsonweed; format: in vivo; parameters: key: 0-10 scale: 0 = no injury, 10 = death; details: alone
Description: as §1, §2, §3, §4, §6

Corn [2] = experiment: Preemergent injury rating, corn; format: in vivo; parameters: key: injury rating scale on which 4 = death
Description: as §1, §2, §3, §4, §5

Foxtail Millet = experiment: General herbicidal effect alone/in combination, foxtail millet; format: in vivo; parameters: key: 0-10 scale: 0 = no injury, 10 = death; details: alone
Description: as §1, §2, §3, §4, §6

Large Crabgrass = experiment: General herbicidal effect alone/in combination, large crabgrass; format: in vivo; parameters: key: 0-10 scale: 0 = no injury, 10 = death; details: alone, 1.0 lbs/A; listed as A
Description: as §1, §2, §3, §4, §6

Velvet Leaf [3] = experiment: General herbicidal effect alone/in combination, velvetleaf; format: in vivo; parameters: key: 0-10 scale: 0 = no injury, 10 = death; details: alone
Description: as §1, §2, §3, §4, §6

Cotton = experiment: Preemergent injury rating, cotton; format: in vivo; parameters: key: injury rating scale on which 4 = death
Description: as §1, §2, §3, §4, §5

Corn [4] = experiment: General herbicidal effect alone/in combination, corn (first Corn column); format: in vivo; parameters: key: 0-10 scale: 0 = no injury, 10 = death; details: alone
Description: as §1, §2, §3, §4, §6

Morning glory = experiment: General herbicidal effect alone/in combination, morning glory; format: in vivo; parameters: key: 0-10 scale: 0 = no injury, 10 = death; details: alone
Description: as §1, §2, §3, §4, §6

Foxtail = experiment: Preemergent injury rating, foxtail; format: in vivo, foxtail (millet); parameters: key: injury rating scale on which 4 = death
Description: as §1, §2, §3, §4, §5

Rice = experiment: General herbicidal effect alone/in combination, rice; format: in vivo; parameters: key: 0-10 scale: 0 = no injury, 10 = death; details: alone
Description: as §1, §2, §3, §4, §6

Lambs Quarter = experiment: General herbicidal effect alone/in combination, lambsquarter; format: in vivo; parameters: key: 0-10 scale: 0 = no injury, 10 = death; details: alone, listed as A
Description: as §1, §2, §3, §4, §6

Ragweed = experiment: General herbicidal effect alone/in combination, ragweed; format: in vivo; parameters: key: 0-10 scale: 0 = no injury, 10 = death; details: alone
Description: as §1, §2, §3, §4, §6

Corn [5] = experiment: General herbicidal effect alone/in combination, corn (second Corn column); format: in vivo; parameters: key: 0-10 scale: 0 = no injury, 10 = death; details: alone
Description: as §1, §2, §3, §4, §6

Crabgrass = experiment: Preemergent injury rating, crabgrass; format: in vivo, large crabgrass; parameters: key: injury rating scale on which 4 = death
Description: as §1, §2, §3, §4, §5

Pigweed [6] = experiment: Preemergent injury rating, pigweed; format: in vivo, rough pigweed; parameters: key: injury rating scale on which 4 = death
Description: as §1, §2, §3, §4, §5

Soybean = experiment: Preemergent injury rating, soybean; format: in vivo; parameters: key: injury rating scale on which 4 = death
Description: as §1, §2, §3, §4, §5

Barnyard Grass = experiment: General herbicidal effect alone/in combination, barnyard grass; format: in vivo; parameters: key: 0-10 scale: 0 = no injury, 10 = death; details: alone
Description: as §1, §2, §3, §4, §6

Pigweed [7] = experiment: General herbicidal effect alone/in combination, pigweed; format: in vivo; parameters: key: 0-10 scale: 0 = no injury, 10 = death; details: alone
Description: as §1, §2, §3, §4, §6

On1c(C(F)(F)F)nc2ncc(Cl)cc21 [6-chloro-1-hydroxy-2-(trifluoromethyl)-1H-imidazo(4,5-b)pyridine]
4B and 2B: herbicidal effect, Jimsonweed (Jimsonweed; 0.25 lbs/A, listed as A)
3B: herbicidal effect, Rice (Rice; 0.5 lbs/A)
4: Injury Rating, Velvet Leaf (Velvet Leaf [1]; 2 lbs/acre) | Injury Rating, Velvet Leaf (Velvet Leaf [1]; 4 lbs/acre) | Injury Rating, Crabgrass (Crabgrass; 1 lbs/acre) | Injury Rating, Crabgrass (Crabgrass; 4 lbs/acre) | Injury Rating, Crabgrass (Crabgrass; 8 lbs/acre) | Injury Rating, Pigweed (Pigweed [6]; 1 lbs/acre) | Injury Rating, Pigweed (Pigweed [6]; 2 lbs/acre) | Injury Rating, Pigweed (Pigweed [6]; 4 lbs/acre) | Injury Rating, Pigweed (Pigweed [6]; 8 lbs/acre)
9BS: herbicidal effect, Jimsonweed (Jimsonweed; 1.0 lbs/A) | herbicidal effect, Jimsonweed (Jimsonweed; 2.0 lbs/A) | herbicidal effect, Barnyard Grass (Barnyard Grass; 2.0 lbs/A)
3: Injury Rating, Velvet Leaf (Velvet Leaf [1]; 8 lbs/acre) | Injury Rating, Foxtail (Foxtail; 1 lbs/acre) | Injury Rating, Foxtail (Foxtail; 2 lbs/acre) | Injury Rating, Foxtail (Foxtail; 4 lbs/acre) | Injury Rating, Foxtail (Foxtail; 8 lbs/acre) | Injury Rating, Crabgrass (Crabgrass; 2 lbs/acre)
8BS and 5BS: herbicidal effect, Jimsonweed (Jimsonweed; 0.5 lbs/A, listed as A)
3S and 2S: herbicidal effect, Large Crabgrass (Large Crabgrass) | herbicidal effect, Barnyard Grass (Barnyard Grass; 1.0 lbs/A, listed as A)
1: Injury Rating, Corn (Corn [2]; 4 lbs/acre) | Injury Rating, Corn (Corn [2]; 8 lbs/acre) | Injury Rating, Soybean (Soybean; 8 lbs/acre)
9BS and 8BS: herbicidal effect, Lambs Quarter (Lambs Quarter; 2.0 lbs/A)
10D: herbicidal effect, Sorghum (Sorghum; 2.0 lbs/A) | herbicidal effect, Foxtail Millet (Foxtail Millet; 2.0 lbs/A) | herbicidal effect, Morning glory (Morning glory; 0.5 lbs/A) | herbicidal effect, Morning glory (Morning glory; 2.0 lbs/A)
0: herbicidal effect, Sorghum (Sorghum; 0.25 lbs/A) | Injury Rating, Corn (Corn [2]; 1 lbs/acre) | Injury Rating, Corn (Corn [2]; 2 lbs/acre) | herbicidal effect, Foxtail Millet (Foxtail Millet; 0.25 lbs/A) | herbicidal effect, Velvet leaf (Velvet Leaf [3]; 0.25 lbs/A) | Injury Rating, Cotton (Cotton; 1 lbs/acre) | Injury Rating, Cotton (Cotton; 2 lbs/acre) | Injury Rating, Cotton (Cotton; 4 lbs/acre) | herbicidal effect, Corn (Corn [4]; 0.25 lbs/A) | herbicidal effect, Corn (Corn [4]; 0.5 lbs/A) | herbicidal effect, Corn (Corn [4]; 1.0 lbs/A) | herbicidal effect, Rice (Rice; 0.25 lbs/A) | herbicidal effect, Corn (Corn [5]; 0.25 lbs/A) | herbicidal effect, Corn (Corn [5]; 0.5 lbs/A) | herbicidal effect, Corn (Corn [5]; 1.0 lbs/A) | Injury Rating, Soybean (Soybean; 1 lbs/acre) | Injury Rating, Soybean (Soybean; 2 lbs/acre) | Injury Rating, Soybean (Soybean; 4 lbs/acre) | herbicidal effect, Barnyard Grass (Barnyard Grass; 0.25 lbs/A) | herbicidal effect, Pigweed (Pigweed [7]; 0.25 lbs/A)
2: Injury Rating, Velvet Leaf (Velvet Leaf [1]; 1 lbs/acre) | Injury Rating, Cotton (Cotton; 8 lbs/acre)
8BS: herbicidal effect, Sorghum (Sorghum; 1.0 lbs/A) | herbicidal effect, Ragweed (Ragweed; 1.0 lbs/A)
2S and 3S: herbicidal effect, Velvet leaf (Velvet Leaf [3]; 0.5 lbs/A, listed as A) | herbicidal effect, Ragweed (Ragweed; 0.25 lbs/A, listed as A) | herbicidal effect, Pigweed (Pigweed [7]; 0.5 lbs/A, listed as A)
9SB and 6SB: herbicidal effect, Lambs Quarter (Lambs Quarter; 1.0 lbs/A)
2S: herbicidal effect, Foxtail Millet (Foxtail Millet; 0.5 lbs/A)
